Source: article PMC6522510 (Nature Communications, 2019)
Where a name gives a salt, the structure may show the parent alone. Read-outs that look alike come from different tables or passages of the source.

Legend:
Set-up in all cases: species or system AML cell lines (8); Primary HTS, single concentration about 10 uM, Cell Titer Glo viability; log10 luminescence, per cent inhibition relative to cycloheximide control
Conditions in all cases: 72 h, relative to cycloheximide control, log10 luminescence, inhibitor
[1] = test system: MV4-11
[2] = test system: ML-2
[3] = test system: U937
[4] = test system: M07e
[5] = test system: MOLM-13
[6] = test system: CMK
[7] = test system: CHRF288-11
[8] = test system: CMS

Structure (SMILES)	MV4-11 %inh ([1]; MV4-11 %inh, 10 µM) [%]	ML-2 %inh ([2]; ML-2 %inh, 10 µM) [%]	U937 %inh ([3]; U937 %inh, 10 µM) [%]	M07e %inh ([4]; M07e %inh, 10 µM) [%]	MOLM-13 %inh ([5]; MOLM-13 %inh, 10 µM) [%]	CMK %inh ([6]; CMK %inh, 10 µM) [%]	CHRF288-11 %inh ([7]; CHRF288-11 %inh, 10 µM) [%]	CMS %inh ([8]; CMS %inh, 10 µM) [%]	MV4-11 %inh [1] [%]	ML-2 %inh [2] [%]	U937 %inh [3] [%]	M07e %inh [4] [%]	MOLM-13 %inh [5] [%]	CMK %inh [6] [%]	CHRF288-11 %inh [7] [%]	CMS %inh [8] [%]
O=C1NC(=O)/C(=C\c2ccc3nccnc3c2)S1 [SJ000534768-3, PI 3-K-GAMMA-INHIBITOR | 648450-29-7 | AS-605240 | AS605240 | PI 3-KY INHIBITOR]	0.09671	-0.2464	-0.7574	2.407	3.402	-0.8645	-5.698	-2.146								
O=C1NC(=O)/C(=C\c2ccc3nccnc3c2)S1 [SJ000534768-4, PI 3-K-GAMMA-INHIBITOR | 648450-29-7 | AS-605240 | AS605240 | PI 3-KY INHIBITOR]	-0.9615	1.156	0.2634	2.923	1.092	2.377	-3.707	2.882								
CCOC(=O)C1=C(C)NC(C)=C(C(=O)OCC)C1c1ccccc1/C=C/C(=O)OC(C)(C)C [SJ000541098-2, LACIDIPINE]	6.96	5.24	12.91	-0.9057	10.16	1.983	-1.312	-2.509								
CCOC(=O)C1=C(C)NC(C)=C(C(=O)OCC)C1c1ccccc1/C=C/C(=O)OC(C)(C)C [SJ000541098-3, LACIDIPINE]	8.929	5.833	2.874	5.059	4.748	6.472	-0.4968	2.32								
CC1(COc2ccc(CC3SC(=O)NC3=O)cc2)CCCCC1 (stereo not shown) [SJ000546494-1, CIGLITAZONE]									4.011	1.382	0.7442	-0.4942	-0.9508	0.5377	3.672	-1.931
Cc1cccc(Nc2cc(Cl)nc(SCC(=O)O)n2)c1C [SJ000546497-1, WY 14643 | WY-14643 | WY-14643 (PIRINIXIC ACID)]									2.638	1.805	0.764	2.884	0.03488	-0.2043	0.5396	-0.6556
CC(C)(c1ccc(OCC2CO2)cc1)c1ccc(OCC2CO2)cc1 (stereo not shown) [SJ000546498-1, BADGE]									2.685	0.3622	-0.2101	-0.5797	-1.249	0.4379	3.756	-0.9549
Oc1ccc(-c2c(-c3ccccc3)nn3c(C(F)(F)F)cc(C(F)(F)F)nc23)cc1 [SJ000546500-1, PHTPP]									0.8155	-0.1539	-1.023	-1.02	-1.733	-2.936	-1.975	-0.8785
CCCCCS(=O)(=O)CCCCCCCCCCn1c(-c2ccc(O)cc2)c(C)c2cc(O)ccc21 [SJ000546504-1, ZK 164015]									19.87	14.83	10.37	14.67	28.37	21	8.284	7.105
CCC[C@@H]1CC2=CC(=O)CC[C@]2(C)[C@H]2CC[C@@]3(C)[C@@H](CC[C@@]34CCC(=O)O4)[C@H]12 [SJ000546508-1, RU 26752]									1.882	2.095	-0.3202	0.5508	-0.802	-5.773	-0.7374	0.3867
CCC[C@@H]1CC2=CC(=O)CC[C@]2(C)[C@H]2CC[C@@]3(C)[C@@H](CC[C@@]3(O)CCC(=O)O)[C@H]12 [SJ000546509-1, RU 28318]									0.6325	3.121	-0.6477	2.635	5.695	5.542	5.992	2.41
COC(=O)/C=C/c1cccc(N(Cc2ccc(-c3ccc(N(C)C)cc3)cc2)C(=O)C2CCCCC2)c1 [SJ000546510-1, FEXARAMINE]									-0.6838	2.174	-1.175	1.611	-2.683	-0.2535	-3.158	0.8467
Clc1ccc(-c2nc3sccn3c2/C=N/OCc2ccc(Cl)c(Cl)c2)cc1 [SJ000546521-1, CITCO]									0.01601	-0.03995	-0.9685	0.1835	-1.049	-3.05	8.549	0.2267
Cc1ccc(C(=O)Cn2c3c(sc2=N)CCCC3)cc1 [SJ000546523-1, PIFITHRIN-ALPHA HYDROBROMIDE | PIFITHRIN-ALPHA HYDROBROMIDE | | PIFITHRIN-ALPHA (PFTALPHA)]									4.352	-0.3437	-0.03033	2.173	4.765	3.731	6.15	0.7689
CN1C(=O)CC(C)(c2ccccc2)C1=O (stereo not shown) [SJ000552432-1, METHSUXIMIDE]									59.35	19.33	35.22	28	28.78	0.7754	16.75	-2.292
COc1cc2c(cc1OC)C(=O)C(CC1CCN(Cc3ccccc3)CC1)C2 (stereo not shown) [SJ000555704-1, DONEPEZIL HYDROCHLORIDE]									4.602	0.002244	1.153	3.462	1.714	10.45	3.237	6.718
C[C@]12C=CC(=O)C=C1CC[C@@H]1[C@@H]2[C@@H](O)C[C@@]2(C)[C@H]1CC[C@]2(O)C(=O)COP(=O)(O)O [SJ000555709-1, PREDNISOLONE SODIUM PHOSPHATE]									1.456	-0.8263	2.195	-1.037	2.036	1.948	1.976	9.04
Cc1nnc(C(C)C)n1[C@@H]1C[C@H]2CC[C@@H](C1)N2CC[C@H](NC(=O)C1CCC(F)(F)CC1)c1ccccc1 [SJ000555710-1, MARAVIROC]									0.334	-1.344	-1.411	0.2532	-2.386	-4.287	3.241	-2.259
CC[C@@H]([C@H](C)O)n1ncn(-c2ccc(N3CCN(c4ccc(OC[C@@H]5CO[C@@](Cn6cncn6)(c6ccc(F)cc6F)C5)cc4)CC3)cc2)c1=O [SJ000555711-1, POSACONAZOLE]									1.133	-0.9552	4.703	-0.5919	-0.6762	-1.399	4.654	1.852
CCOC(=O)C1=C[C@@H](OC(CC)CC)[C@H](NC(C)=O)[C@@H](N)C1 [SJ000555712-1, OSELTAMIVIR PHOSPHATE]									-1.699	3.111	-0.7037	-1.677	-1.922	1.207	-4.38	1.863
